Publication PMC10980815, “Cell surface patching via CXCR4-targeted nanothreads for cancer metastasis inhibition” (Nature Communications, 2024)
Ends that are not written are not given here.

Test system: LOX
Assay: LOX ELISA (intra-tumoral, serum, pulmonary)
Format: in vivo, female BALB/c mice
Design: Pulmonary LOX: unit not given beside the values; Intratumoral LOX / Systemic LOX: unit not given here
Settings: for Systemic LOX: serum
Procedure: 4T1 cells (1 × 10^6 cells) were injected into the third mammary fat pad of female BALB/c mice (6–8-week). […] On day 28, blood samples, lungs and tumors were harvested.
To explore the “seed-soil” crosstalk, the serum, intra-tumoral, and pulmonary concentration of LOX was determined using enzyme-linked immunosorbent assay kits (CSB-EL013041MO, CUSABIO, https://www.cusabio.com/) according to the manufacturer’s instructions. The serum, intra-tumoral, and pulmonary concentration of TGF-β was determined using mouse TGF-β ELISA Kit (Cat No.: HB1328-Mu). The formation of PMN was investigated through lung slices subjected to immunofluorescent staining of LOX, E-cadherin, and S100A8. For immunofluorescent staining of E-cadherin, Lung slices were stained with CoraLite® Plus 647 anti-mouse CD324 (E-cadherin, 1:300 dilution). For immunofluorescent staining of LOX and S100A8, Lung slices were separately stained with anti-LOX recombinant rabbit monoclonal antibody (1:500 dilution) or S100-A8 / MRP8 rabbit pAb (1:500 dilution), followed by staining with goat anti-rabbit IgG H&L Alexa Fluor® 647 (1:1000 dilution), respectively. Single-cell suspensions of lungs were analyzed using flow cytometry to assess BMDC (CD11b^+Gr1^+) with PE anti-mouse/human CD11b antibody (1:300 dilution) and FITC anti-mouse Ly-6G/Ly-6C (Gr-1) antibody (1:300 dilution). Chemokine concentrations in lungs were determined using a mouse CXCL12 ELISA kit.

Row | Substance | Intratumoral LOX (replicate 1) | Pulmonary LOX (replicate 1) | Intratumoral LOX (replicate 2) | Pulmonary LOX (replicate 2) | Intratumoral LOX (replicate 3) | Pulmonary LOX (replicate 3) | Intratumoral LOX (replicate 4) | Pulmonary LOX (replicate 4) | Intratumoral LOX (replicate 5) | Pulmonary LOX (replicate 5) | Systemic LOX (replicate 1) | Systemic LOX (replicate 2) | Systemic LOX (replicate 3) | Systemic LOX (replicate 4) | Systemic LOX (replicate 5)
1 | LGASWHRPDKCCLGYQKRPLPA [Free BS] | 4.19 | 254.76 | 4.18 | 210.31 | 5.17 | 211.1 | 5.44 | 280.17 | 4.81 | 276.43 | 127.4 | 132.76 | 133.61 | 151.3 | 147.4
2 | P-BS: HPMA copolymer-BS conjugate, ~6 BS grafts per polymer (LGASWHRPDKCCLGYQKRPLPA; not fully specified (residues 11, 12); also: about 6 peptides grafted on HPMA copolymer via cysteine-maleimide thioether links) | 3.43 | 195.4 | 2.08 | 174.61 | 1.87 | 154.51 | 2.69 | 156.3 | 2.96 | 144.2 | 76.42 | 77.13 | 91.2 | 85.1 | 105.1
